Laboratory results from PubChem BioAssay (NCI).
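Five compound concentrations were applied to cells in 96-well plates for 48 hours; endpoints were derived by simple linear interpolation of the resulting dose-response curve. GI50: concentration for 50% inhibition of growth. TGI: concentration producing complete growth inhibition.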

What was measured:
Test in all cases: NCI anticancer screen, dose series, 48 h
EKVX NSCLC = system: EKVX NSCLC
HT29 colon = system: HT29 colon
KM20L2 colon = system: KM20L2 colon
NCI-H23 lung = system: NCI-H23 lung
TK-10 renal = system: TK-10 renal
CAKI-1 renal = system: CAKI-1 renal
M14 melanoma = system: M14 melanoma
MDA-MB-231 breast = system: MDA-MB-231 breast
SK-MEL-5 melanoma = system: SK-MEL-5 melanoma
SR leukemia = system: SR leukemia
M19-MEL melanoma = system: M19-MEL melanoma

Compound | TGI (EKVX NSCLC) | TGI (HT29 colon) | TGI (KM20L2 colon) | TGI (NCI-H23 lung) | TGI (TK-10 renal) | TGI (CAKI-1 renal) | TGI (M14 melanoma) | TGI (MDA-MB-231 breast) | TGI (SK-MEL-5 melanoma) | TGI (SR leukemia) | GI50 (CAKI-1 renal) | GI50 (EKVX NSCLC) | GI50 (HT29 colon) | GI50 (M14 melanoma) | GI50 (MDA-MB-231 breast) | GI50 (NCI-H23 lung) | GI50 (SK-MEL-5 melanoma) | GI50 (SR leukemia) | GI50 (TK-10 renal) | TGI (M19-MEL melanoma)
CC(c1ccccc1)N1CC(C)(c2ccccc2)N(O)C(c2ccccc2)C1C (configuration not stated) | 62.1 µM | > 100 µM | 44.7 µM | 56.8 µM | > 100 µM |  |  |  |  |  |  |  |  |  |  |  |  |  |  | 
CC(=O)c1ccc(NC(=O)CSc2nc(C)nc3c2sc(=S)n3-c2ccccc2)cc1 | > 3.16 µM | > 3.16 µM |  | > 3.16 µM | > 3.16 µM | > 3.16 µM | > 3.16 µM | > 3.16 µM | > 3.16 µM | > 3.16 µM |  |  |  |  |  |  |  |  |  | 
Oc1[nH]c2ccccc2c1/C=c1/cc2c(c(-c3ccc(C(F)(F)F)cc3)n1)=Nc1ccccc1-2 | > 100 µM | 11.4 µM |  | 31.8 µM | 22.9 µM | 27.5 µM | 17.4 µM | 13.9 µM | 19.3 µM | 11.3 µM | 3.96 µM | 10.5 µM | 3.16 µM | 3.89 µM | 1.89 µM | 10.9 µM | 5.28 µM | 1.27 µM | 5.54 µM | 
NC(=O)C1=CC2C3C=CC2(O)C(=O)OC3O1 (configuration not stated) | 13.5 µM | 9.83 µM |  | 9.47 µM | 16.7 µM | 17 µM | 13.2 µM | 32 µM | 6.32 µM | 5.48 µM |  |  |  |  |  |  |  |  |  | 
O=C1C=C(N2CCN(c3ccccn3)CC2)C(=O)c2c(O)ccc(O)c21 | > 65.7 µM | 31.2 µM |  | 13 µM | 45.7 µM | > 46.4 µM | > 48.2 µM | 44.9 µM | 4.5 µM | > 50.7 µM |  |  |  |  |  |  |  |  |  | 
C/C(=C\Cc1cc(O)ccc1O)CCc1c(C)cc(O)c(C=O)c1C | > 100 µM | 48.6 µM | > 100 µM | 70.8 µM | > 100 µM | 63.5 µM | 63.1 µM |  | 31.7 µM | > 100 µM |  |  |  |  |  |  |  |  |  | 
O=P(O)(O)CN1CCNCCN(CP(=O)(O)O)CCNCC1 | > 100 µM | > 100 µM |  | > 100 µM | > 100 µM | > 100 µM | > 100 µM | > 100 µM | > 42 µM | 4.16 µM |  |  |  |  |  |  |  |  |  | 
COc1ccc(C(=O)c2ccc(-n3cc(/C=C/[N+](=O)[O-])c4ccccc43)cc2)cc1 | 55 µM | 57.3 µM |  | 52.4 µM | 16.8 µM | > 52.3 µM | > 74.5 µM | 43.9 µM | > 61.9 µM | > 100 µM |  |  |  |  |  |  |  |  |  | 
O=C1CC2(CCNCC2)C(=O)N1N1CCOCC1 | > 100 µM | > 100 µM |  | > 100 µM | > 100 µM | > 100 µM | > 100 µM | > 100 µM | > 100 µM | > 100 µM |  |  |  |  |  |  |  |  |  | 
CC1(C)CCC2(C(=O)OC3OC(CO)C(O)C(O)C3O)CCC3(CO)C(=CCC4C5(C)CC(O)C(O)C(C)(C(=O)OC6OC(CO)C(O)C(O)C6O)C5CCC43C)C2C1 (configuration not stated) | > 100 µM | > 100 µM |  | > 100 µM | > 100 µM | > 100 µM | > 100 µM | > 100 µM | > 100 µM | > 100 µM |  |  |  |  |  |  |  |  |  | 
O=C1/C(=C\c2cccc(Oc3ccccc3)c2)SC(c2ccccc2)N1c1cccc([N+](=O)[O-])c1 (configuration not stated) | > 100 µM | > 100 µM |  | > 100 µM | > 100 µM | > 100 µM | > 100 µM | > 100 µM | > 100 µM | > 100 µM |  |  |  |  |  |  |  |  |  | 
Cc1c2cccc-2ccc2c1[nH]c1ccccc12 | 3.68 µM | 14.4 µM |  | 8.99 µM | 4.92 µM | 19.3 µM | 3.7 µM | 3.48 µM | 3.34 µM | 18.9 µM |  |  |  |  |  |  |  |  |  | 
CCOC(=O)c1nc2ccccc2nc1NCc1ccc(Cl)cc1Cl | > 100 µM | > 100 µM |  | > 100 µM | > 100 µM | > 100 µM | > 100 µM | > 100 µM | > 100 µM | > 100 µM |  |  |  |  |  |  |  |  |  | 
CC(=O)Nc1ccc(C(=O)N2N=C(C)/C(=C/c3ccc(O)cc3)C2=O)cc1 | > 100 µM | > 100 µM |  | > 100 µM | > 100 µM | > 100 µM |  |  | > 100 µM | > 100 µM |  |  |  |  |  |  |  |  |  | > 100 µM
Nc1c(N=Nc2ccc(-c3ccc(N=Nc4c(O)ccc5cc(S(=O)(=O)O)cc(S(=O)(=O)O)c45)cc3)cc2)c(S(=O)(=O)O)cc2cc(S(=O)(=O)O)c(N=Nc3ccccc3)c(O)c12 | > 100 µM | > 100 µM |  | > 100 µM |  |  |  |  | > 100 µM |  |  |  |  |  |  |  |  |  |  | > 100 µM
O=C(CSc1nc2ccc(I)cc2c(=O)n1Cc1ccccc1)NN1C(=O)CCC1=O | > 100 µM | > 100 µM |  | 66.6 µM | > 100 µM | 6.91 µM | > 100 µM | > 100 µM | > 100 µM | > 100 µM |  |  |  |  |  |  |  |  |  | 
CC(C)=CCC[C@@H](C)c1c2[nH]c3ccccc3sc-2c(C)c(=O)c1=O | > 75 µM | > 27.4 µM |  | 41.9 µM | > 75 µM | 35.2 µM | 48.5 µM | > 75 µM | 19.7 µM | > 61.6 µM |  |  |  |  |  |  |  |  |  | 
CC(=O)O[C@H]1C(=O)N(c2cc3c4ccccc4ccc3c3ccccc23)[C@@H]1c1ccccc1 | 74.2 µM | 6.98 µM |  | 37.3 µM | 47.1 µM | 35.5 µM | 23.1 µM | 48.2 µM | 67.1 µM | 40.3 µM |  |  |  |  |  |  |  |  |  | 
